From patent US10149885B2, “Method of treatment or prophylaxis of infections of the eye” (STARPHARMA PTY LIMITED, priority 2012, dated 2018)
≈ marks a conversion by molar mass, not a printed value. Where two headings read alike, the source gives them in different places.

Legend:
[1] = tested on: Adeno-1; test: Cytopathic assay (CPE); assay type: cell-based, Adenovirus; conditions: Adeno-1/CPE
Description: For the Cytopathic assay (CPE) Plates of cells were incubated with the respective adenovirus subtype and drug at different drug concentrations. Cells were incubated until a Cytopathic effect was clearly observed in plates where cells and virus were plated without drug. In plates where drug was added, the cytopathic effect was quantified using a light microscope and expressed as 0% (no effect) up to 100% (effect as strong as in the no drug control plates). CPE readings were plotted against the drug concentration and the EC50 value was determined as the drug concentration where 50% CPE was observed.

[2] = tested on: Adenovirus; test: Plaque reduction neutralization test (NR), positive control, subtype not given; assay type: cell-based; conditions: unidentified adenovirus
Description: (§1) The Plaque reduction neutralization test (NR) is used to quantify the ability of a dendrimer to neutralize/inactivate virus. The dendrimer solution to be tested is diluted and mixed with a viral suspension. This is incubated to allow the dendrimer to react with the virus. This is poured over a confluent monolayer of host cells. The surface of the cell layer is covered in a layer of agar or carboxymethyl cellulose to prevent the virus from spreading. The concentration of plaque forming units can be estimated by the number of plaques (regions of infected cells) formed after a few days. Depending on the virus, the plaque forming units are measured by microscopic observation, fluorescent labelled antibodies or specific dyes that react with infected cells. The concentration of dendrimer to reduce the number of plaques by 50% compared to the dendrimer free virus gives the EC50 value.
Ribivirin was included as a positive control.

[3] = tested on: Adeno-5; test: Plaque reduction neutralization test (NR); assay type: cell-based, Adenovirus; conditions: Adeno-5/NR
Description: as §1

[4] = tested on: Adeno-1; test: Plaque reduction neutralization test (NR); assay type: cell-based, Adenovirus; conditions: Adeno-1/NR
Description: as §1

[5] = tested on: Gardnerella vaginalis ATCC 14018 (MMX 4153); test: Serial passage resistance development, MIC; assay type: cell-based; conditions: for MIC: Gardnerella vaginalis
[6] = tested on: Mobiluncus curtisii ATCC 35241 (MMX 4145); test: Serial passage resistance development, MIC; assay type: cell-based; conditions: for MIC: Mobiluncus curtisii
[7] = tested on: Adenovirus 37 (ATCC #VR-929); test: Adenoviral replication titer reduction, drug added after infection (control protocol); assay type: cell-based; conditions: for Percent reduction of adenoviral replication: Adeno-37, WI-38 cells
Excerpt: (§2) Adenovirus subtype 5 (ATCC #VR-5) was used with HeLa cells (ATCC #CCL-2), Adenovirus subtype 8 (ATCC #VR-1640) was used with A549 cells (ATCC #CCL-185), Adenovirus subtype 19 (ATCC #VR-254) was used with Chang C cells (ATCC #CCL-20.2) and Adenovirus 37 (ATCC #VR-929) was used with WI-38 cells (ATCC #CCL-75). Both epithelial and fibroblast cell types were used. The recovered virus was titrated in the susceptible cell lines by performing dilutions at 1/10 to 1/100,000 and addition to cells in plates. When cytopathic effect (CPE) was apparent in the virus control, titration plates were classified as positive or negative for cytopathic effect and based on the dilution of the virus applied to the different plates, the 50% tissue-culture infective dose (TCID50) was calculated using the Spearman-Kärber method (Hubert, J J (1984) Spearman-Karber Method in Bioaasay. Hunt, Dubuque, Iowa, pp 65, 66). The TCID50 establishes the dilution at which 50% of the plates show a cytopathic effect (infection). Comparing the TCID50 for sample without SPL7013 with the TCID50 values for samples with different concentrations of SPL7013 provides a measure of the percent reduction of infection achieved by each concentration of SPL7013. This percent reduction represents the activity of SPL7013 against penetration of cells with adenoviruses. A control substance (cidofovir) was tested alongside SPL7013 at 20 μg/mL, 2 μg/mL, 0.2 μg/mL and 0.02 μg/mL (Gordon Y J, Antiviral Research, 1991, 16(1), 11-16). Because cidofovir acts later in the viral replication cycle, target cells were first infected with 0.1 MOI virus and incubated 60 minutes at 37° C.±2° C. Virus was removed, cidofovir was added at the respective concentrations and cells were incubated until CPE reached its maximum. Cells were then lysed and virus was titrated as described above.

[8] = tested on: Adenovirus subtype 19 (ATCC #VR-254); test: as above; assay type: cell-based; conditions: for Percent reduction of adenoviral replication: Adeno-19, Chang C cells
Excerpt: as §2

[9] = tested on: Adenovirus subtype 5 (ATCC #VR-5); test: as above; assay type: cell-based; conditions: for Percent reduction of adenoviral replication: Adeno-5, HeLa cells
Excerpt: as §2

[10] = tested on: Adenovirus subtype 8 (ATCC #VR-1640); test: as above; assay type: cell-based; conditions: for Percent reduction of adenoviral replication: Adeno-8, A549 cells
Excerpt: as §2

[11] = tested on: Ad5 McEwen; test: In vivo treatment of adenoviral eye infection, ocular cultures titred by plaque assay; parameters: species or system NZW female rabbits; conditions: 0.5% cidofovir in saline, 37 μL per eye twice a day, n = 8-10
Description: Following general anesthesia and corneal scarification, NZW female rabbits were inoculated in each eye with 50 μl of 3.0×10^7 PFU/mL (1.5×10^6 PFU/eye) of Ad5 McEwen. At about 3 hours after inoculation, a swab was taken of the tear film and corneal and conjunctival surfaces into tubes containing 1 mL of outgrowth media, and cultured for adenovirus.
The rabbits were then divided into 3 groups: 3% SPL7013 (n=5), Vehicle (n=5) and 0.5% cidofovir in saline as positive control (n=4). Commencing on day 1, animals were treated in each eye with 37 μL of drug 8 times a day, or 37 μL of control twice a day. Swabs of the tear film and corneal and conjunctival surfaces were taken one hour after treatment.
Ad5 titers were determined on A549 lung carcinoma cell monolayers using a standard plaque assay. The ocular cultures were diluted and inoculated onto A549 monolayers, and the virus adsorbed for 3 hours. Following adsorption, 1 mL of media plus 0.5% methylcellulose was added to each well, and the plates were incubated at 37° C. in a 5% CO2-water vapor atmosphere for 7 days, then stained with 0.5% gentian violet, and plaques were counted.

[12] = tested on: Lactobacillus acidophilus MMX 5716; test: Serial passage resistance development, MIC; assay type: cell-based; conditions: for MIC: Lactobacillus acidophilus
[13] = tested on: Prevotella bivia MMX 3447; test: Serial passage resistance development, MIC; assay type: cell-based; conditions: for MIC: Prevotella bivia
[14] = ATCC14018, read-out: MIC after serial passage
[15] = ATCC14018, read-out: MIC at baseline

Compound: [NH3][PAMAM]4NHCSNH-2-naphth-5,7-(SO3Na)2]24
- EC50 [1]: 20 µg/mL

Compound: NC(=O)c1ncn([C@@H]2O[C@H](CO)[C@@H](O)[C@H]2O)n1 [Ribavirin]
- EC50 [2]: 10 µg/mL (≈ 40.9 µM)

Compound: [NH3][PAMAM]2[CSNH-3,5-Ph(SO3Na)2]24
- EC50 [3]: 150 µg/mL

Compound: [BHALys][Lys]32deoxycholicacid[NHCSNH-4-ph-SO3Na]63
- EC50 [4]: 10 µg/mL
- EC50 [1]: 20 µg/mL

Compound: Cc1ncc([N+](=O)[O-])n1CCO [Metronidazole]
- MIC [5, 14]: > 128 µg/mL
- MIC [5, 15]: 4 µg/mL (≈ 23.4 µM)
- Fold increase of MIC ([5]; by passage 7): > 64 fold
- MIC ([6]; ATCC35241, read-out: MIC after serial passage): > 128 µg/mL
- MIC ([6]; ATCC35241, read-out: MIC at baseline): 8 µg/mL (≈ 46.7 µM)
- Fold increase of MIC ([6]; by passage 5): > 16 fold

Compound: Nc1ccn(C[C@@H](CO)OCP(=O)(O)O)c(=O)n1 [cidofovir]
- Percent reduction of adenoviral replication ([7]; cidofovir 0.02 μg/mL): 0.00%
- Percent reduction of adenoviral replication ([7]; cidofovir 0.2 μg/mL): 57.83%
- Percent reduction of adenoviral replication ([7]; cidofovir 2 μg/mL): 99.99%
- Percent reduction of adenoviral replication ([7]; cidofovir 20 μg/mL): >99.99%
- IC50 ([7]; unidentified adenovirus, Adeno-37, estimated, molar basis (279 g/mol)): 112 nM
- Percent reduction of adenoviral replication ([8]; cidofovir 0.02 μg/mL): 0.00%
- Percent reduction of adenoviral replication ([8]; cidofovir 0.2 μg/mL): 0.00%
- Percent reduction of adenoviral replication ([8]; cidofovir 2 μg/mL): 43.77%
- Percent reduction of adenoviral replication ([8]; cidofovir 20 μg/mL): 94.38%
- IC50 ([8]; unidentified adenovirus, Adeno-19, estimated, molar basis (279 g/mol)): 52.4 µM
- Percent reduction of adenoviral replication ([9]; cidofovir 0.02 μg/mL): 68.38%
- Percent reduction of adenoviral replication ([9]; cidofovir 0.2 μg/mL): 82.22%
- Percent reduction of adenoviral replication ([9]; cidofovir 2 μg/mL): 86.66%
- Percent reduction of adenoviral replication ([9]; cidofovir 20 μg/mL): 90.00%
- IC50 ([9]; unidentified adenovirus, Adeno-5, estimated, molar basis (279 g/mol)): 559 nM
- Percent reduction of adenoviral replication ([10]; cidofovir 0.02 μg/mL): 90.00%
- Percent reduction of adenoviral replication ([10]; cidofovir 0.2 μg/mL): 98.22%
- Percent reduction of adenoviral replication ([10]; cidofovir 2 μg/mL): 98.67%
- Percent reduction of adenoviral replication ([10]; cidofovir 20 μg/mL): 99.00%
- IC50 ([10]; unidentified adenovirus, Adeno-8, estimated, molar basis (279 g/mol)): 112 nM
- % Ad5 -Positive cultures ([11]; Day 0 (before treatment)): 100%
- % Ad5 -Positive cultures ([11]; Day 1): 100%
- % Ad5 -Positive cultures ([11]; Day 3): 100%
- % Ad5 -Positive cultures ([11]; Day 4): 75%

Compound: CO[C@H]1/C=C/O[C@@]2(C)Oc3c(C)c(O)c4c(O)c(c5c(nc6cc(C)ccn65)c4c3C2=O)NC(=O)/C(C)=C\C=C\[C@H](C)[C@H](O)[C@@H](C)[C@@H](O)[C@@H](C)[C@H](OC(C)=O)[C@@H]1C [Rifaximin]
- MIC [5, 14]: 128 µg/mL (≈ 163 µM)
- MIC [5, 15]: 0.06 µg/mL (≈ 0.0763 µM)
- Fold increase of MIC ([5]; by passage 9): > 2000 fold
- Change of MIC during passage (in words) ([6]; 10 serial passages): No apparent increase
- MIC ([12]; MMX5716, read-out: MIC after serial passage): 64 µg/mL (≈ 81.4 µM)
- MIC ([12]; MMX5716, read-out: MIC at baseline): 1 µg/mL (≈ 1.27 µM)
- Fold increase of MIC ([12]; by passage 9): 64 fold
- MIC ([13]; MMX3447, read-out: MIC after serial passage): 0.12 µg/mL (≈ 0.153 µM)
- MIC ([13]; MMX3447, read-out: MIC at baseline): 0.03 µg/mL (≈ 0.0382 µM)
- Fold increase of MIC ([13]; passage number not given): 4 fold
